Assay results reported in patent US8445476B2, “Carbacephem β-lactam antibiotics” (Achaogen, Inc., priority 2007, dated 2013).
Converted amounts (≈) assume the structure as drawn.

Columns and labels:
Format in all cases: cell-based
[1] = test system: S. aureus ASAU1028 (CA-MRSA, USA400); experiment: MIC assay, S. aureus ASAU1028; conditions: Staphylococcus aureus, read-out: MIC ASAU 1028
Experimental: (§1) The in vitro MIC for bacterial isolates may be obtained in the following manner: a test compound is incorporated into a series of two-fold dilutions in cation adjusted Mueller-Hinton broth (CAMHB). Different bacterial strains diluted to provide a uniform inoculum are added to the CAMHB containing test compounds. A well without test compound is included for each strain as a growth control. […] The procedures used in these experiments are generally those standardized by the Clinical and Laboratory Standards Institute (CLSI), as set forth in the CLSI publication entitled “M7-A7. Methods for dilution antimicrobial susceptibility tests for bacteria that grow aerobically; approved standard-seventh edition.” (2006), which is incorporated by reference as if fully set forth herein. The following exemplifies such a procedure although it is to be understood that modifications of the procedure may be implemented as required.
(§2) Two-fold dilutions of the test compounds are prepared in CAMHB at 2× the concentration range to be tested if the compounds are soluble in aqueous solution. Alternately, dimethylsulfoxide (DMSO) is used to prepare two-fold dilutions at 10× the concentration range to be tested. Reference drugs such as cefotaxime, vancomycin or imipenem are used as positive controls. A few isolated colonies are retrieved from a pure culture prepared on an agar plate and suspended in PBS until the turbidity of the suspension matches a 0.5 McFarland standard which is equal to approximately 10^8 sCFU/mL. This solution is further diluted in CAMHB to 10^6CFU/mL if compounds are diluted in CAMHB and 5×10^5 CFU/mL if compounds are diluted in DMSO. The CAMHB plates containing the compound dilutions are combined in equal volumes with the higher density inoculum, or 10 μL of the DMSO dilutions are added to the lower density inoculum. When S. aureus is the organism being tested and the compound is oxacillin, a beta-lactam or a carbacephem compound of the present invention, 2% NaCl is added to the growth media. The plates are then incubated for 16-20 hours at 35° C. The plates are then observed to determine which concentration of the test compound is the MIC.

[2] = test system: S. aureus ASAU1043 (MRSA, CIP, ERY, CLI, GEN resistant); experiment: MIC assay, S. aureus ASAU1043; conditions: Staphylococcus aureus, read-out: MIC ASAU 1043
Experimental: as §1, §2

[3] = test system: S. aureus ASAU1033 (MRSA, CIP, ERY, CLIN, TET, GEN resistant); experiment: MIC assay, S. aureus ASAU1033; conditions: Staphylococcus aureus, read-out: MIC ASAU 1033
Experimental: as §1, §2

[4] = test system: S. aureus ASAU1029 (CA-MRSA, USA300); experiment: MIC assay, S. aureus ASAU1029; conditions: Staphylococcus aureus, read-out: MIC ASAU 1029
Experimental: as §1, §2

[5] = test system: S. aureus ASAU001 (Susceptible Organism ATCC 29213); experiment: MIC assay, S. aureus ASAU001; conditions: Staphylococcus aureus, ATCC29213, read-out: MIC ASAU 001
Experimental: as §1, §2

SMILES | MIC [1] [µg/mL] | MIC [2] [µg/mL] | MIC [3] [µg/mL] | MIC [4] [µg/mL] | MIC [5] [µg/mL]
Nc1nc(/C(=N/O)C(=O)N[C@@H]2C(=O)N3C(C(=O)O)=C(Sc4nnc(N)s4)CC[C@H]23)ns1 [45/1, (6R,7S,Z)-7-(2-(5-amino-1,2,4-thiadiazol-3-yl)-2-(hydroxyimino)acetamido)-3-(5-amino-1,3,4-thiadiazol-2-ylthio)-8-oxo-1-aza-bicyclo[4.2.0]oct-2-ene-2-carboxylic Acid] | 1 to 8 (≈ 2.07 to 16.5 µM) | > 8 | > 8 | ≤ 1 | ≤ 1
Nc1nc(/C(=N/O)C(=O)N[C@@H]2C(=O)N3C(C(=O)O)=C(Sc4cccnc4N)CC[C@H]23)c(Cl)s1 [28/1, (6R,7S,Z)-7-(2-(2-amino-5-chlorothiazol-4-yl)-2-(hydroxyimino)acetamido)-3-(2-aminopyridin-3-ylthio)-8-oxo-1-aza-bicyclo[4.2.0]oct-2-ene-2-carboxylic Acid] | ≤ 1 | > 8 | > 8 | 1 to 8 (≈ 1.96 to 15.7 µM) | ≤ 1
CO/N=C(\C(=O)N[C@@H]1C(=O)N2C(C(=O)O)=C(Sc3cccnc3CN)CC[C@H]12)c1nc(N)sc1Cl [43/1, (6R,7S,Z)-7-(2-(2-amino-5-chlorothiazol-4-yl)-2-(methoxyimino)acetamido)-3-(2-(aminomethyl)pyridin-3-ylthio)-8-oxo-1-aza-bicyclo[4.2.0]oct-2-ene-2-carboxylic acid] | > 8 | > 8 | > 8 | > 8 | ≤ 1
NCCc1ncccc1SC1=C(C(=O)O)N2C(=O)[C@@H](NC(=O)/C(=N\O)c3nc(N)sc3Cl)[C@H]2CC1 [32/1, (6R,7S,Z)-7-(2-(2-amino-5-chlorothiazol-4-yl)-2-(hydroxyimino)acetamido)-3-(2-(2-aminoethyl)pyridin-3-ylthio)-8-oxo-1-aza-bicyclo[4.2.0]oct-2-ene-2-carboxylic Acid] | – | > 8 | 1 to 8 (≈ 1.86 to 14.9 µM) | > 8 | ≤ 1
CO/N=C(\C(=O)N[C@@H]1C(=O)N2C(C(=O)O)=C(Sc3cccnc3CCN)CC[C@H]12)c1nc(N)sc1Cl [39/1, (6R,7S,Z)-7-(2-(2-amino-5-chlorothiazol-4-yl)-2-(methoxyimino)acetamido)-3-(2-(2-aminoethyl)pyridin-3-ylthio)-8-oxo-1-aza-bicyclo[4.2.0]oct-2-ene-2-carboxylic Acid] | 1 to 8 (≈ 1.81 to 14.5 µM) | > 8 | > 8 | 1 to 8 (≈ 1.81 to 14.5 µM) | ≤ 1
CO/N=C(\C(=O)N[C@@H]1C(=O)N2C(C(=O)O)=C(Sc3ccncc3)CC[C@H]12)c1nc(N)sc1Cl [37/1, (6R,7S,Z)-7-(2-(2-amino-5-chlorothiazol-4-yl)-2-(methoxyimino)acetamido)-8-oxo-3-(pyridin-4-ylthio)-1-aza-bicyclo[4.2.0]oct-2-ene-2-carboxylic Acid] | 1 to 8 (≈ 1.96 to 15.7 µM) | > 8 | 1 to 8 (≈ 1.96 to 15.7 µM) | > 8 | ≤ 1
CNCCSCc1ncccc1SC1=C(C(=O)O)N2C(=O)[C@@H](NC(=O)/C(=N\OC)c3nc(N)sc3Cl)[C@H]2CC1 [41/1, (6R,7S,Z)-7-(2-(2-amino-5-chlorothiazol-4-yl)-2-(methoxyimino)acetamido)-3-(2-((2-(methylamino)ethylthio)methyl)pyridin-3-ylthio)-8-oxo-1-aza-bicyclo[4.2.0]oct-2-ene-2-carboxylic Acid] | 1 to 8 (≈ 1.63 to 13.1 µM) | > 8 | > 8 | – | ≤ 1
Nc1nc(/C(=N/O)C(=O)N[C@@H]2C(=O)N3C(C(=O)O)=C(Sc4nncs4)CC[C@H]23)ns1 [46/1, (6R,7S,Z)-3-(1,3,4-thiadiazol-2-ylthio)-7-(2-(5-amino-1,2,4-thiadiazol-3-yl)-2-(hydroxyimino)acetamido)-8-oxo-1-aza-bicyclo[4.2.0]oct-2-ene-2-carboxylic Acid] | 1 to 8 (≈ 2.13 to 17.1 µM) | > 8 | > 8 | ≤ 1 | ≤ 1
CO/N=C(\C(=O)N[C@@H]1C(=O)N2C(C(=O)O)=C(Sc3ccncc3)CC[C@H]12)c1nsc(N)n1 [53/1, (6R,7S,Z)-7-(2-(5-amino-1,2,4-thiadiazol-3-yl)-2-(methoxyimino)acetamido)-8-oxo-3-(pyridin-4-ylthio)-1-aza-bicyclo[4.2.0]oct-2-ene-2-carboxylic Acid] | 1 to 8 (≈ 2.1 to 16.8 µM) | > 8 | > 8 | 1 to 8 (≈ 2.1 to 16.8 µM) | ≤ 1

Next, values leading:

MIC [1] [µg/mL] | MIC [2] [µg/mL] | MIC [3] [µg/mL] | MIC [4] [µg/mL] | MIC [5] [µg/mL] | SMILES
1 to 8 (≈ 1.91 to 15.3 µM) | > 8 | > 8 | > 8 | ≤ 1 | CO/N=C(\C(=O)N[C@@H]1C(=O)N2C(C(=O)O)=C(Sc3cccnc3N)CC[C@H]12)c1nc(N)sc1Cl [40/1, (6R,7S)-7-(2-(2-amino-5-chlorothiazol-4-yl)-2-(methoxyimino)acetamido)-3-(2-aminopyridin-3-ylthio)-8-oxo-1-aza-bicyclo[4.2.0]oct-2-ene-2-carboxylic acid]
> 8 | > 8 | > 8 | 1 to 8 (≈ 2.01 to 16.1 µM) | ≤ 1 | CO/N=C(\C(=O)N[C@@H]1C(=O)N2C(C(=O)O)=C(Sc3nnc(N)s3)CC[C@H]12)c1nsc(N)n1 [49/1, (6R,7S,Z)-7-(2-(5-amino-1,2,4-thiadiazol-3-yl)-2-(methoxyimino)acetamido)-3-(5-amino-1,3,4-thiadiazol-2-ylthio)-8-oxo-1-aza-bicyclo[4.2.0]oct-2-ene-2-carboxylic Acid]
1 to 8 (≈ 1.77 to 14.2 µM) | > 8 | 1 to 8 (≈ 1.77 to 14.2 µM) | 1 to 8 (≈ 1.77 to 14.2 µM) | ≤ 1 | CO/N=C(\C(=O)N[C@@H]1C(=O)N2C(C(=O)O)=C(Sc3ccncc3CSCCN)CC[C@H]12)c1nsc(N)n1 [52/1, (6R,7S,Z)-7-(2-(5-amino-1,2,4-thiadiazol-3-yl)-2-(methoxyimino)acetamido)-3-(3-((2-aminoethylthio)methyl)pyridin-4-ylthio)-8-oxo-1-aza-bicyclo[4.2.0]oct-2-ene-2-carboxylic acid]
1 to 8 (≈ 2.17 to 17.3 µM) | > 8 | > 8 | ≤ 1 | ≤ 1 | Nc1nc(/C(=N/O)C(=O)N[C@@H]2C(=O)N3C(C(=O)O)=C(Sc4ccncc4)CC[C@H]23)ns1 [44/1, (6R,7S,Z)-7-(2-(5-amino-1,2,4-thiadiazol-3-yl)-2-(hydroxyimino)acetamido)-8-oxo-3-(pyridin-4-ylthio)-1-aza-bicyclo[4.2.0]oct-2-ene-2-carboxylic Acid]
1 to 8 (≈ 2.07 to 16.6 µM) | > 8 | > 8 | 1 to 8 (≈ 2.07 to 16.6 µM) | ≤ 1 | CO/N=C(\C(=O)N[C@@H]1C(=O)N2C(C(=O)O)=C(Sc3nncs3)CC[C@H]12)c1nsc(N)n1 [50/1, (6R,7S,Z)-3-(1,3,4-thiadiazol-2-ylthio)-7-(2-(5-amino-1,2,4-thiadiazol-3-yl)-2-(methoxyimino)acetamido)-8-oxo-1-aza-bicyclo[4.2.0]oct-2-ene-2-carboxylic Acid]
1 to 8 (≈ 1.82 to 14.5 µM) | 1 to 8 (≈ 1.82 to 14.5 µM) | 1 to 8 (≈ 1.82 to 14.5 µM) | ≤ 1 | ≤ 1 | NCCSCc1ncccc1SC1=C(C(=O)O)N2C(=O)[C@@H](NC(=O)/C(=N\O)c3nsc(N)n3)[C@H]2CC1 [47/1, (6R,7S,Z)-7-(2-(5-amino-1,2,4-thiadiazol-3-yl)-2-(hydroxyimino)acetamido)-3-(2-((2-aminoethylthio)methyl)pyridin-3-ylthio)-8-oxo-1-aza-bicyclo[4.2.0]oct-2-ene-2-carboxylic Acid]
≤ 1 | 1 to 8 (≈ 1.64 to 13.1 µM) | 1 to 8 (≈ 1.64 to 13.1 µM) | ≤ 1 | ≤ 1 | Nc1nc(/C(=N/O)C(=O)N[C@@H]2C(=O)N3C(C(=O)O)=C(Sc4cccnc4CSC4CCNC4)CC[C@H]23)c(Cl)s1 (stereo partly drawn) [30/1, (6R,7S,Z)-7-(2-(2-amino-5-chlorothiazol-4-yl)-2-(hydroxyimino)acetamido)-8-oxo-3-(2-((pyrrolidin-3-ylthio)methyl)pyridin-3-ylthio)-1-aza-bicyclo[4.2.0]oct-2-ene-2-carboxylic acid]
≤ 1 | 1 to 8 (≈ 1.67 to 13.4 µM) | 1 to 8 (≈ 1.67 to 13.4 µM) | ≤ 1 | ≤ 1 | CNCCSCc1ncccc1SC1=C(C(=O)O)N2C(=O)[C@@H](NC(=O)/C(=N\O)c3nc(N)sc3Cl)[C@H]2CC1 [29/1, (6R,7S,Z)-7-(2-(2-amino-5-chlorothiazol-4-yl)-2-(hydroxyimino)acetamido)-3-(2-((2-(methylamino)ethylthio)methyl)pyridin-3-ylthio)-8-oxo-1-aza-bicyclo[4.2.0]oct-2-ene-2-carboxylic acid]
